Among the data in patent US10981932B2, “Macrocyclic indole derivatives” (Bayer Aktiengesellschaft, priority 2016, dated 2021) are IC50 and EC50 values, retold here.

SMILES strings stand for the structures. Several values for one entry are separate records, joined by “and”; a condition that tells them apart may be missing. Equal entries are not always repeated. Where two headings read alike, the source gives them in different places.

The target of one series is MCL-1 (Homo sapiens, UniProt Q07820). Briefly: Protein-protein interaction assay MCL-1/Noxa BH3 peptide (MCL-1 assay), TR-FRET. The following applies: MBP-MCL-1 / Noxa BH3-derived peptide, median. The series is classed as binding. Summed up: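 TR-FRET, 665/622 nm emission ratio (excitation 330–350 nm), measured MCL-1/Noxa complex formation. 1 nM MBP-MCL-1, 50 mM Tris/HCl pH 7, 0.1% BGG, 2 mM DTT. Incubation 1 h at 22 °C, then overnight at 4 °C. IC50 by 4-parameter regression, normalized to DMSO (0%) and no-MCL-1 (100%) controls.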
For orientation: In TR-FRET formats the signal depends on donor and acceptor labels being close together.

The test system of series [1] is SUDHL5. In words: Induction of caspase-3/7 activity (Caspase-Glo 3/7), SUDHL5. The series is classed as cell-based. Particulars: caspase-3/7 induction, SUDHL5 cells, 3 h treatment, median. Summed up:
(§1)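 DLBCL cells treated with compounds for 3 h at 37 °C, then caspase-3/7 activity read by Caspase-Glo 3/7 luminescence. Medium-only background subtracted; EC50 fitted with C0 fixed at 1 and top set to the reference compound's maximal induction.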

For series [2], the system named is SUDHL10. In words: Induction of caspase-3/7 activity (Caspase-Glo 3/7), SUDHL10. Type of series: cell-based. Particulars: caspase-3/7 induction, SUDHL10 cells, 3 h treatment, median. Summed up:
as §1

In series [3] the test system is SUDHL10. Briefly: Anti-proliferative effect (CellTiter-Glo, 72 h), SUDHL10. The series is classed as cell-based. Particulars: SUDHL10 cells, antiproliferation, 72 h incubation, median, read-out: Antiproli SUDHL10 [M] (median). In short, it runs like this: (§2)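 A time zero plate, read with CellTiter-Glo shortly after seeding, served as baseline; compound-treated plates were incubated 72 h at 37 °C and then read identically by luminescence.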

For a further series, the system named is OPM2. In words: Anti-proliferative effect (CellTiter-Glo, 72 h), OPM2. Type of series: cell-based. The following applies: OPM2 cells, median, read-out: IC50 antiproliferation assay OPM2 [M] (median). How it is done: Assessment of the Anti-Proliferative Effect of Compounds in Different Cell Lines
The impact of compounds on the proliferation of different cell lines was assessed using the CellTiter-Glo® Luminescent Cell Viability reagent from Promega (G7573). Of note, SUDHL10 and SUDHL5 (DLBCL), NCI-H929 (Multiple Myeloma), A2780 (ovarian carcinoma) as well as MV-4-11(AML) cells are sensitive to MCL-1 inhibition.
In parallel, cells were plated in a reference (day 0) plate for time zero determination.
Rim wells were excluded. The cells were incubated for 72 h hours in a humidified incubator at 37° C. The day 0 plate was measured by adding 30 μl/well of CTG solution (CellTiter-Glo® Luminescent Cell Viability reagent, Promega G7573) to time zero wells in the reference plate followed by a 10 minutes incubation and luminescence reading at 0.1 ms, using the PHERAstar FS microplate reader (BMG Labtech).
After 72 h incubation, the treated plates were measured in the same way as the day 0 plate mentioned above.

For the next series, the system named is A2780. In words: Anti-proliferative effect (CellTiter-Glo, 72 h), A2780. Particulars: Homo sapiens, A2780, 72 h, A2780 cells, median, read-out: IC50 antiproliferation assay A2780 [M] (median). Type of series: cell-based. Summed up: as §2
Series [4] deals with SUDHL5. Briefly: Induction of cytotoxicity (CellTiter-Glo, 5 h), SUDHL5. On the technique in general: In ATP-based viability assays light output follows the ATP content of the culture.
In series [5] the test system is SUDHL10. In words: Induction of cytotoxicity (CellTiter-Glo, 5 h), SUDHL10.
For series [6], the system named is SUDHL5. In words: Anti-proliferative effect (CellTiter-Glo, 72 h), SUDHL5. Particulars: Homo sapiens, SU-DHL-5, 72 h, SUDHL5 cells, antiproliferation, 72 h incubation, median, read-out: Antiproli SUDHL5 [M] (median). The series is classed as cell-based. In short, it runs like this: as §2
Setting [7] is: Homo sapiens, SU-DHL-5, 5 h, read-out: Cytotox SUDHL5 [M] (median), SUDHL5 cells, cytotoxicity induction, CellTiter-Glo, 5 h incubation, median.
Setting [8] is: Homo sapiens, SU-DHL10, 5 h, read-out: Cytotox SUDHL10 [M] (median), SUDHL10 cells, cytotoxicity induction, CellTiter-Glo, 5 h incubation, median.

Chain of MCL-1 (Q07820 whole entry): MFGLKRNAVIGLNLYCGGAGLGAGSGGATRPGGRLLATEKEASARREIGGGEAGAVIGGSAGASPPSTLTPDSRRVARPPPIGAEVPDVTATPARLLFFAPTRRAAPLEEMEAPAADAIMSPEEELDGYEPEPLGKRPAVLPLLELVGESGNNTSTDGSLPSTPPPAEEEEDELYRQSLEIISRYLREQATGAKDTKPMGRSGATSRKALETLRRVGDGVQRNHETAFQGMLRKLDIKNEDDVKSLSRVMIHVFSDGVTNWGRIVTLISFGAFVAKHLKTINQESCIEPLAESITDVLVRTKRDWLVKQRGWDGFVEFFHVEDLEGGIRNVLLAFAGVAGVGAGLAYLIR

Take `CC(C)OCc1nn(C)c2c1-c1cccc3c(CCCOc4cccc5ccccc45)c(C(=O)O)n(c13)CCCN(C)C2` (racemic) [Example 1-70, (rac)-7,9-dimethyl-1-[3-(naphthalen-1-yloxy)propyl]-11-[(propan-2-yloxy)methyl]-4,5,6,7,8,9-hexahydropyrazolo[3′,4′:78][1,5]diazecino[9,10,1-hi]indole-2-carboxylic Acid]: the IC50 at MCL-1 is 20 nM; in the series with SUDHL10 [3] (Homo sapiens, SU-DHL10, 72 h), 1.31e-05 M; with OPM2 (Homo sapiens, OPM-2, 72 h), 1.22e-05 M; with A2780 it was 1.82e-05 M; in the series on SUDHL5 [4] (setting [7]), more than 3.3e-05 M; with SUDHL10 [5] (setting [8]), 2.78e-05 M. Besides, the 50% effective concentration (EC50) in the series on SUDHL5 [1] (Homo sapiens, SU-DHL-5, 3 h) is more than 33 µM; with SUDHL10 [2] (Homo sapiens, SU-DHL10, 3 h) it was more than 33 µM.

On to `Cc1nn(C)c2c1-c1cccc3c(CCCOc4cccc5ccccc45)c(C(=O)O)n(c13)CCN(c1ccccc1)C2` (racemic) [Example 1-101, (rac)-8,10-Dimethyl-1-[3-(1-naphthyloxy)propyl]-6-phenyl-5,6,7,8-tetrahydro-4H-pyrazolo[3′,4′:6,7][1,4]diazonino[8,9,1-hi]indole-2-carboxylic Acid], for which the IC50 is 319 nM at MCL-1; 1.05e-05 M in the series on SUDHL10 [3] (Homo sapiens, SU-DHL10, 72 h); more than 3.3e-05 M in the series on OPM2 (Homo sapiens, OPM-2, 72 h); 1.97e-05 M with A2780; more than 3.3e-05 M in the series on SUDHL5 [4] (setting [7]); more than 3.3e-05 M with SUDHL10 [5] (setting [8]). The EC50 in the series with SUDHL5 [1] (Homo sapiens, SU-DHL-5, 3 h) is more than 33 µM; with SUDHL10 [2] (Homo sapiens, SU-DHL10, 3 h), more than 33 µM.

Turning to `COc1cc2cc(c1)-c1cccc3c(CCCOc4cccc5c4CCCC5)c(C(=O)O)n(c13)CCOCCO2` (racemic) [Example 1-118, (rac)-12-Methoxy-1-[3-(5,6,7,8-tetrahydronaphthalen-1-yloxy)propyl]-4,57,8-tetrahydro-10,14-(metheno)[1,4,7]dioxazacyclotetradecino[9,8,7-hi]indole-2-carboxylic Acid], the IC50 against MCL-1 was 2180 nM; in the series on SUDHL10 [3] (Homo sapiens, SU-DHL10, 72 h) it was 2.2e-05 M; with OPM2 (Homo sapiens, OPM-2, 72 h), more than 3.3e-05 M; with A2780, 3.25e-05 M; with SUDHL5 [4] (setting [7]) it was more than 3.3e-05 M; in the series on SUDHL10 [5] (setting [8]), more than 3.3e-05 M. In addition, the EC50 in the series with SUDHL5 [1] (Homo sapiens, SU-DHL-5, 3 h) was more than 33 µM; with SUDHL10 [2] (Homo sapiens, SU-DHL10, 3 h) it was more than 33 µM.

`COc1cc2cc(c1)-c1cccc3c(CCCOc4cccc5ccccc45)c(C(=O)O)n(c13)CCOCCO2` (racemic) [Example 1-119, (rac)-12-Methoxy-1-[3-(1-naphthyloxy)propyl]-4,5,7,8-tetrahydro-10,14-(metheno)[1,4,7]dioxazacyclotetradecino[9,8,7-hi]indole-2-carboxylic Acid]: the IC50 against MCL-1 was 2310 nM; in the series with SUDHL10 [3] (Homo sapiens, SU-DHL10, 72 h), more than 3.3e-05 M; in the series on OPM2 (Homo sapiens, OPM-2, 72 h) it was more than 3.3e-05 M; in the series with A2780, more than 3.3e-05 M; in the series with SUDHL5 [4] (setting [7]), more than 3.3e-05 M; with SUDHL10 [5] (setting [8]) it was more than 3.3e-05 M. Moreover, the EC50 in the series with SUDHL5 [1] (Homo sapiens, SU-DHL-5, 3 h) is more than 33 µM; in the series with SUDHL10 [2] (Homo sapiens, SU-DHL10, 3 h), more than 33 µM.

In the case of `Cn1nc(COc2ccc(N3CCN(CC(=O)O)CC3)cc2)c2c1COCCCCn1c(C(=O)O)c(CCCOc3cccc4ccccc34)c3cccc-2c31` (racemic) [Example 1-120, (rac)-3-({4-[4-(Carboxymethy)piperazin-1-yl]phenoxy}methyl)-1-methyl-7-[3-(naphthalen-1-yloxy)propyl]-1,10,11,12,13,15-hexahydropyrazolo[4′,3′:9,10][1,6]oxazacycloundecino[8,7,6-hi]indole-8-carboxylic Acid], the IC50 against MCL-1 was 4.66 nM; in the series with SUDHL10 [3] (Homo sapiens, SU-DHL10, 72 h), more than 3.3e-05 M; in the series with OPM2 (Homo sapiens, OPM-2, 72 h) it was more than 3.3e-05 M; in the series on A2780, more than 3.3e-05 M; in the series on SUDHL5 [4] (setting [7]), more than 3.3e-05 M; with SUDHL10 [5] (setting [8]) it was more than 3.3e-05 M. Also, the EC50 in the series on SUDHL5 [1] (Homo sapiens, SU-DHL-5, 3 h) was more than 33 µM; in the series with SUDHL10 [2] (Homo sapiens, SU-DHL10, 3 h), more than 33 µM.

For the compound `COc1cc2cc(c1)-c1cccc3c(CCCOc4cccc5ccccc45)c(C(=O)O)n(c13)CCCCCO2` (racemic) [Example 1-122, (rac)-12-Methoxy-1-[3-(naphthalen-1-yloxy)propyl]-5,6,7,8-tetrahydro-4H-10,14-(metheno)[1,7]oxazacyclotetradecino[9,8,7-hi]indole-2-carboxylic Acid], the IC50 is 6880 nM against MCL-1; more than 3.3e-05 M in the series with SUDHL10 [3] (Homo sapiens, SU-DHL10, 72 h); 2.77e-05 M with OPM2 (Homo sapiens, OPM-2, 72 h); 2.8e-05 M with A2780; more than 3.3e-05 M with SUDHL5 [4] (setting [7]); more than 3.3e-05 M in the series with SUDHL10 [5] (setting [8]). Moreover, the EC50 in the series with SUDHL5 [1] (Homo sapiens, SU-DHL-5, 3 h) was more than 33 µM; with SUDHL10 [2] (Homo sapiens, SU-DHL10, 3 h), more than 33 µM.

Regarding `CN(C)S(=O)(=O)N1CCN(c2ccc(OCc3nn(C)c4c3-c3cccc5c(CCCOc6cccc7ccccc67)c(C(=O)O)n(c35)CCCN(Cc3ccccc3)C4)cc2)CC1` (racemic) [Example 004, (rac)-(7-benzyl-11-({4-[4dimethylsulfamoyl)piperazin-1-yl]phenoxy}methyl)-9-methyl-1-[3-(1-naphthyloxy)propyl]4,5,6,7,8,9-hexahydropyrazolo[3′,4′:7,8][1,5]diazecino[9,10,1-hi]indole-2-carboxylic Acid], the IC50 against MCL-1 turned out to be 117 nM; in the series with SUDHL10 [3] (Homo sapiens, SU-DHL10, 72 h), 2.04e-06 M; with OPM2 (Homo sapiens, OPM-2, 72 h) it was 1.09e-05 M; in the series on A2780, 7.13e-06 M; in the series with SUDHL5 [4] (setting [7]) it was 1.47e-05 M; in the series on SUDHL10 [5] (setting [8]), 2.57e-05 M. The EC50 in the series on SUDHL5 [1] (Homo sapiens, SU-DHL-5, 3 h) amounted to 12.5 µM; with SUDHL10 [2] (Homo sapiens, SU-DHL10, 3 h) it was 25.8 µM.

Turning to `COC1(c2ccc(OCc3nn(C)c4c3-c3cccc5c(CCCOc6cccc7ccccc67)c(C(=O)O)n(c35)CCCCOC4)cc2)CCOCC1` (single isomer, unassigned) [Example 1-66, 3-{[4-(4-methoxytetrahydro-2H-pyran-4-yl)phenoxy]methyl}-1-methyl-7-[3-(naphthalen-1-yloxy)propyl]-1,10,11,12,13,15-hexahydropyrazolo[4′,3′:9,10][1,6]oxazacycloundecino[8,7,6-hi]indole-8-carboxylic Acid], the IC50 on MCL-1 is 9.43 nM; in the series on SUDHL10 [3], 9.23e-06 M and 1.76e-05 M; in the series on OPM2 (Homo sapiens, OPM-2, 72 h) it was 1.18e-05 M; with A2780, 1.22e-05 M. The EC50 in the series on SUDHL5 [1] came out at 6.15 µM; in the series on SUDHL10 [2], 8.47 µM.

In the case of `CC(=O)N1CCN(c2ccc(OCc3nn(C)c4c3-c3cccc5c(CCCOc6cccc7ccccc67)c(C(=O)O)n(c35)CCCCOC4)cc2)CC1` (single isomer, unassigned; enantiomer 1) [Example 1-25, 3-{[4-(4-acetylpiperazin-1-yl)phenoxy]methyl}-1-methyl-7-[3-(naphthalen-1-yloxy)propyl]-1,10,11,12,13,15-hexahydropyrazolo[4′,3′:9,10][1,6]oxazacycloundecino[8,7,6-hi]indole-8-carboxylic Acid (Enantiomer 1)], the IC50 against MCL-1 is 131 nM; in the series with SUDHL5 [6], 2.86e-05 M; with OPM2 it was 1.08e-05 M; in the series with A2780, 1.7e-05 M; with SUDHL5 [4] (read-out: Cytotox SUDHL5 [M] (median), SUDHL5 cells, cytotoxicity induction, CellTiter-Glo, 5 h incubation, median), 2.68e-06 M; in the series with SUDHL10 [5] (read-out: Cytotox SUDHL10 [M] (median), SUDHL10 cells, cytotoxicity induction, CellTiter-Glo, 5 h incubation, median), 4.02e-06 M. The EC50 came to 1.61 µM in the series with SUDHL5 [1] and 3.89 µM in the series with SUDHL10 [2].

For orientation: EC50 means the concentration giving half of the maximal effect. A lower EC50 goes with greater potency.
